Laboratory results taken from PubChem BioAssay (NCI).
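Cells were grown in 96-well plates and exposed to each compound for 48 hours at five concentrations; endpoints were interpolated linearly between bracketing concentrations, or set to the highest concentration if not reached. The concentration for 50% growth inhibition is given as GI50. TGI: total growth inhibition.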

Experiments:
Assay in all cases: NCI anticancer screen, dose series, 48 h
786-0 renal = test system: 786-0 renal
A498 renal = test system: A498 renal
A549 NSCLC = test system: A549 NSCLC
ACHN renal = test system: ACHN renal
CAKI-1 renal = test system: CAKI-1 renal
CCRF-CEM leukemia = test system: CCRF-CEM leukemia
COLO 205 colon = test system: COLO 205 colon
DU-145 prostate = test system: DU-145 prostate
EKVX NSCLC = test system: EKVX NSCLC
HCC-2998 colon = test system: HCC-2998 colon
HCT-116 colon = test system: HCT-116 colon
HCT-15 colon = test system: HCT-15 colon
HOP-62 NSCLC = test system: HOP-62 NSCLC
HOP-92 NSCLC = test system: HOP-92 NSCLC
HS 578T breast = test system: HS 578T breast
HT29 colon = test system: HT29 colon
IGROV1 ovarian = test system: IGROV1 ovarian
K-562 leukemia = test system: K-562 leukemia
KM12 colon = test system: KM12 colon
LOX IMVI melanoma = test system: LOX IMVI melanoma
M14 melanoma = test system: M14 melanoma
MALME-3M melanoma = test system: MALME-3M melanoma
MCF7 breast = test system: MCF7 breast
MDA-MB-231 breast = test system: MDA-MB-231 breast
MDA-MB-435 = test system: MDA-MB-435
MOLT-4 leukemia = test system: MOLT-4 leukemia
NCI-H226 lung = test system: NCI-H226 lung
NCI-H23 lung = test system: NCI-H23 lung
NCI-H460 lung = test system: NCI-H460 lung
NCI-H522 lung = test system: NCI-H522 lung
NCI/ADR-RES ovarian = test system: NCI/ADR-RES ovarian
OVCAR-4 ovarian = test system: OVCAR-4 ovarian
OVCAR-5 ovarian = test system: OVCAR-5 ovarian
OVCAR-8 ovarian = test system: OVCAR-8 ovarian
PC-3 prostate = test system: PC-3 prostate
RPMI-8226 leukemia = test system: RPMI-8226 leukemia
RXF 393 renal = test system: RXF 393 renal
SF-268 CNS = test system: SF-268 CNS
SF-295 CNS = test system: SF-295 CNS
SF-539 CNS = test system: SF-539 CNS
SK-MEL-2 melanoma = test system: SK-MEL-2 melanoma
SK-MEL-28 melanoma = test system: SK-MEL-28 melanoma
SK-MEL-5 melanoma = test system: SK-MEL-5 melanoma
SK-OV-3 ovarian = test system: SK-OV-3 ovarian
SN12C renal = test system: SN12C renal
SNB-19 CNS = test system: SNB-19 CNS
SNB-75 CNS = test system: SNB-75 CNS
SR leukemia = test system: SR leukemia
SW-620 colon = test system: SW-620 colon
TK-10 renal = test system: TK-10 renal
U251 CNS = test system: U251 CNS
UACC-257 melanoma = test system: UACC-257 melanoma
UACC-62 melanoma = test system: UACC-62 melanoma
UO-31 renal = test system: UO-31 renal

NC(N)=Nc1ccc(Oc2cccc(NC(N)=Nc3ccc(Cl)c(C(F)(F)F)c3)c2)cn1
GI50 (786-0 renal): 4.83 µM | TGI (786-0 renal): 24.8 µM | GI50 (A498 renal): 1.69 µM | TGI (A498 renal): 6.24 µM | GI50 (A549 NSCLC): 1.91 µM | TGI (A549 NSCLC): 17.4 µM | GI50 (ACHN renal): 13.3 µM | TGI (ACHN renal): 29.4 µM | GI50 (CAKI-1 renal): 3.29 µM | TGI (CAKI-1 renal): 17.4 µM | GI50 (CCRF-CEM leukemia): 2.27 µM | TGI (CCRF-CEM leukemia): 10.3 µM | GI50 (COLO 205 colon): 1.43 µM | TGI (COLO 205 colon): 3.08 µM | GI50 (DU-145 prostate): 2.22 µM | TGI (DU-145 prostate): 5.27 µM | GI50 (EKVX NSCLC): 2.77 µM | TGI (EKVX NSCLC): 13.5 µM | GI50 (HCC-2998 colon): 1.67 µM | TGI (HCC-2998 colon): 3.37 µM | GI50 (HCT-116 colon): 1.73 µM | TGI (HCT-116 colon): 4.86 µM | GI50 (HCT-15 colon): 19.6 µM | TGI (HCT-15 colon): 67.6 µM | GI50 (HOP-62 NSCLC): 2.05 µM | TGI (HOP-62 NSCLC): 5.76 µM | GI50 (HOP-92 NSCLC): 1.16 µM | TGI (HOP-92 NSCLC): 3.43 µM | GI50 (HS 578T breast): 1.78 µM | TGI (HS 578T breast): 4.63 µM | GI50 (HT29 colon): 1.91 µM | TGI (HT29 colon): 5.64 µM | GI50 (IGROV1 ovarian): 1.07 µM | TGI (IGROV1 ovarian): 2.51 µM | GI50 (K-562 leukemia): 1.51 µM | TGI (K-562 leukemia): 10.6 µM | GI50 (KM12 colon): 1.47 µM | TGI (KM12 colon): 2.9 µM | GI50 (LOX IMVI melanoma): 1.4 µM | TGI (LOX IMVI melanoma): 2.74 µM | GI50 (M14 melanoma): 3.22 µM | TGI (M14 melanoma): 19.3 µM | GI50 (MALME-3M melanoma): 2.3 µM | TGI (MALME-3M melanoma): 7.91 µM | GI50 (MCF7 breast): 1.24 µM | TGI (MCF7 breast): 3.01 µM | GI50 (MDA-MB-231 breast): 1.99 µM | TGI (MDA-MB-231 breast): 5.23 µM | GI50 (MDA-MB-435): 1.66 µM | TGI (MDA-MB-435): 3.66 µM | GI50 (MOLT-4 leukemia): 2.16 µM | TGI (MOLT-4 leukemia): 8.08 µM | GI50 (NCI-H226 lung): 2.18 µM | TGI (NCI-H226 lung): 6.25 µM | GI50 (NCI-H23 lung): 1.73 µM | TGI (NCI-H23 lung): 4.15 µM | GI50 (NCI-H460 lung): 1.48 µM | TGI (NCI-H460 lung): 3.6 µM | GI50 (NCI-H522 lung): 2.19 µM | TGI (NCI-H522 lung): 5.81 µM | GI50 (NCI/ADR-RES ovarian): 40.5 µM | TGI (NCI/ADR-RES ovarian): > 100 µM | GI50 (OVCAR-4 ovarian): 2.53 µM | TGI (OVCAR-4 ovarian): 9.36 µM | GI50 (OVCAR-5 ovarian): 1.89 µM | TGI (OVCAR-5 ovarian): 5.73 µM | GI50 (OVCAR-8 ovarian): 3.3 µM | TGI (OVCAR-8 ovarian): 18.7 µM | GI50 (PC-3 prostate): 1.07 µM | TGI (PC-3 prostate): 2.62 µM | GI50 (RPMI-8226 leukemia): 1.56 µM | TGI (RPMI-8226 leukemia): 4 µM | GI50 (RXF 393 renal): 1.83 µM | TGI (RXF 393 renal): 4.78 µM | GI50 (SF-268 CNS): 1.09 µM | TGI (SF-268 CNS): 2.54 µM | GI50 (SF-295 CNS): 2.08 µM | TGI (SF-295 CNS): 7.97 µM | GI50 (SF-539 CNS): 1.54 µM | TGI (SF-539 CNS): 3.01 µM | GI50 (SK-MEL-2 melanoma): 1.78 µM | TGI (SK-MEL-2 melanoma): 3.37 µM | GI50 (SK-MEL-28 melanoma): 2.04 µM | TGI (SK-MEL-28 melanoma): 5.92 µM | GI50 (SK-MEL-5 melanoma): 2.53 µM | TGI (SK-MEL-5 melanoma): 6.94 µM | GI50 (SK-OV-3 ovarian): 2.7 µM | TGI (SK-OV-3 ovarian): 10.4 µM | GI50 (SN12C renal): 2.2 µM | TGI (SN12C renal): 8.97 µM | GI50 (SNB-19 CNS): 1.28 µM | TGI (SNB-19 CNS): 2.68 µM | GI50 (SNB-75 CNS): 0.515 µM | TGI (SNB-75 CNS): 2.92 µM | GI50 (SR leukemia): 1.42 µM | TGI (SR leukemia): 3.76 µM | GI50 (SW-620 colon): 1.94 µM | TGI (SW-620 colon): 4.83 µM | GI50 (TK-10 renal): 4.35 µM | TGI (TK-10 renal): 21.7 µM | GI50 (U251 CNS): 1.26 µM | TGI (U251 CNS): 2.83 µM | GI50 (UACC-257 melanoma): 2.87 µM | TGI (UACC-257 melanoma): 12.8 µM | GI50 (UACC-62 melanoma): 2.38 µM | TGI (UACC-62 melanoma): 12.7 µM | GI50 (UO-31 renal): 12.9 µM | TGI (UO-31 renal): 29.6 µM
